Converted amounts (≈) assume the structure as drawn.
What was measured:
[1] = system: Staphylococcus aureus (ATCC29213); assay: Microtitre plate assay, IC90 determination; assay type: cell-based; settings: 90% inhibitory concentration for bacterial growth, 37° C., resazurin fluorescence; for IC90: Staphylococcus aureus, ATCC29213, 24 h, read-out: IC90 STA 29213; for IC90 STA 29213: 24 hours
Description: (§1) The bacteria used in this study were grown overnight in flasks containing 100 ml Mueller-Hinton Broth (Becton Dickinson—cat. no. 275730) in sterile de-ionized water, with shaking, at 37° C. Stocks (0.5 ml/tube) were stored at −70° C. until use. Bacteria titrations were performed in microtiter plates and colony forming units (CFUs) were determined. In general, an inoculum level of approximately 100 CFUs was used for susceptibility testing.
(§2) Anti Bacterial Susceptibility Testing: IC90 Determination
(§3) Flat-bottom, sterile 96-well plastic microtiter plates were filled with 180 μl of sterile deionized water, supplemented with 0.25% BSA. Subsequently, stock solutions (7.8× final test concentration) of compounds were added in 45 μl volumes in column 2. Serial five-fold dilutions (45 μl in 180 μl) were made directly in the microtiter plates from column 2 to reach column 11. Untreated control samples with (column 1) and without (column 12) inoculum were included in each microtiter plate. Depending on the bacteria type, approximately 10 to 60 CFU per well of bacteria inoculum (100 TCID50), in a volume of 100 μl in 2.8× Mueller-Hinton broth medium, was added to the rows A to H, except column 12. The same volume of broth medium without inoculum was added to column 12 in row A to H. The cultures were incubated at 37° C. for 24 hours under a normal atmosphere (incubator with open air valve and continuous ventilation). At the end of incubation, one day after inoculation, the bacterial growth was quantitated fluorometrically. Therefore resazurin (0.6 mg/ml) was added in a volume of 20 μl to all wells 3 hours after inoculation, and the plates were re-incubated overnight. A change in colour from blue to pink indicated the growth of bacteria. The fluorescence was read in a computer-controlled fluorometer (Cytofluor Biosearch) at an excitation wavelength of 530 nm and an emission wavelength of 590 nm. The % growth inhibition achieved by the compounds was calculated according to standard methods. The IC90 (expressed in μg/ml) was defined as the 90% inhibitory concentration for bacterial growth.

[2] = system: Streptococcus pneumoniae (ATCC6305); assay: Microtitre plate assay, IC90 determination; assay type: cell-based; settings: 90% inhibitory concentration for bacterial growth; for IC90: read-out: IC90 SPN 6305
Description: as §1, §2, §3

[3] = system: Bacillus subtilis (ATCC43639); assay: Microtitre plate assay, IC90 determination; assay type: cell-based; settings: 90% inhibitory concentration for bacterial growth; for IC90: read-out: IC90 BSU 43639
Description: as §1, §2, §3

[4] = system: Enterococcus faecalis (ATCC14506); assay: Microtitre plate assay, IC90 determination; assay type: cell-based; settings: 90% inhibitory concentration for bacterial growth; for IC90: read-out: IC90 EFA 14506
Description: as §1, §2, §3

[5] = system: Enterococcus faecalis (ATCC29212); assay: Microtitre plate assay, IC90 determination; assay type: cell-based; settings: 90% inhibitory concentration for bacterial growth; for IC90: read-out: IC90 EFA 29212
Description: as §1, §2, §3

[6] = system: Listeria monocytogenes (ATCC49594); assay: Microtitre plate assay, IC90 determination; assay type: cell-based; settings: 90% inhibitory concentration for bacterial growth; for IC90: read-out: IC90 LMO 49594
Description: as §1, §2, §3

[7] = system: Pseudomonas aeruginosa (ATCC27853); assay: Microtitre plate assay, IC90 determination; assay type: cell-based; settings: 90% inhibitory concentration for bacterial growth; for IC90: read-out: IC90 PAE 27853
Description: as §1, §2, §3

[8] = system: Staphylococcus aureus (ATCC25923); assay: Microtitre plate assay, IC90 determination; assay type: cell-based; settings: for IC90 STA 25923: 90% inhibitory concentration for bacterial growth; for IC90: Staphylococcus aureus, ATCC25923, 90% inhibitory concentration for bacterial growth, read-out: IC90 STA 25923
Description: as §1, §2, §3

[9] = system: Streptococcus pyogens (ATCC8668); assay: Microtitre plate assay, IC90 determination; assay type: cell-based; settings: for IC90: Streptococcus, ATCC8668, 90% inhibitory concentration for bacterial growth, read-out: IC90 SPY 8668; for IC90 SPY 8668: 90% inhibitory concentration for bacterial growth
Description: as §1, §2, §3

[10] = system: methicilline resistant Staphylococcus aureus (MRSA) (a clinical isolate from the University of Antwerp); assay: Microtitre plate assay, IC90 determination; assay type: cell-based; settings: 90% inhibitory concentration for bacterial growth; for IC90: Staphylococcus aureus, MRSA, read-out: IC90 STA RMETHIC
Description: as §1, §2, §3

[11] = system: Streptococcus mutans (ATCC33402); assay: Microtitre plate assay, IC90 determination; assay type: cell-based; settings: 90% inhibitory concentration for bacterial growth, read-out: IC90 SMU 33402
Description: as §1, §2, §3

melting point	IC90 [1]	IC90 [2]	IC90 [3]	IC90 [5]	IC90 [6]	IC90 [7]	IC90 [9]	IC90 [8]	SMILES	IC90 [10]	also measured
	7.43 µg/mL (≈ 15.9 µM)	7.43 µg/mL (≈ 15.9 µM)							COc1nc2ccc(C(c3ccccc3)C(O)(CCCCN(C)C)c3ccccc3)cc2cc1C (single isomer, unassigned) [Compound 13]		
	12.8 µg/mL (≈ 25.1 µM)	12.8 µg/mL (≈ 25.1 µM)	12.8 µg/mL (≈ 25.1 µM)	12.8 µg/mL (≈ 25.1 µM)	12.8 µg/mL (≈ 25.1 µM)	12.8 µg/mL (≈ 25.1 µM)	12.8 µg/mL (≈ 25.1 µM)		CCc1cc2cc(C(c3ccccc3)C(O)(CCN(C)C)c3cccc4ccccc34)ccc2nc1Cl (single isomer, unassigned) [Compound 6]		IC90 [4]: 11.4 µg/mL (≈ 22.4 µM); IC90 STA 25923 [8]: 12.8 µg/mL (≈ 25.1 µM); IC90 STA RMETHIC [10]: 50.9 µg/mL (≈ 100 µM)
	1.53 µg/mL (≈ 3.17 µM)	1.53 µg/mL (≈ 3.17 µM)							CCc1cc2cc(C(c3ccccc3)C(O)(CCCCN(C)C)c3ccccc3)ccc2nc1OC (single isomer, unassigned) [Compound 12]		
	12.4 µg/mL (≈ 25 µM)	12.4 µg/mL (≈ 25 µM)	39.3 µg/mL (≈ 79.4 µM)	12.4 µg/mL (≈ 25 µM)	7.9 µg/mL (≈ 16 µM)	12.4 µg/mL (≈ 25 µM)	12.4 µg/mL (≈ 25 µM)	49.5 µg/mL (≈ 100 µM)	CCc1cc2cc(C(c3ccccc3)C(O)(CCN(C)C)c3cc(F)cc(F)c3)ccc2nc1Cl (single isomer, unassigned) [Compound 11]	49.5 µg/mL (≈ 100 µM)	
	12.4 µg/mL (≈ 25 µM)	12.4 µg/mL (≈ 25 µM)	12.4 µg/mL (≈ 25 µM)	12.4 µg/mL (≈ 25 µM)	12.4 µg/mL (≈ 25 µM)	9.9 µg/mL (≈ 20 µM)	12.4 µg/mL (≈ 25 µM)	12.4 µg/mL (≈ 25 µM)	CCc1cc2ccc(C(c3ccccc3)C(O)(CCN(C)C)c3cc(F)cc(F)c3)cc2nc1Cl (single isomer, unassigned) [Compound 10]	12.4 µg/mL (≈ 25 µM)	

The remaining lines, values behind:

SMILES	melting point	IC90 [1]	IC90 [2]	IC90 [3]	IC90 [5]	IC90 [6]	IC90 [7]	IC90 [9]	IC90 [8]	IC90 [10]	also measured
CN(C)CC(c1cccc(F)c1)C(O)C(Cc1ccccc1)c1ccc2cc(Br)ccc2n1 (single isomer, unassigned) [Compound 4]	179 °C										
CN(C)CC(c1cccc2ccccc12)C(O)C(Cc1ccccc1)c1ccc2cc(Br)ccc2n1 (single isomer, unassigned) [Compound 3]	69 °C										
CCc1cc2cc(C(c3ccccc3)C(O)(CCN(C)C)c3cccc4ccccc34)ccc2nc1Cl (single isomer, unassigned) [Compound 5]											IC90 BSU 43639 [3]: 12.8 µg/mL (≈ 25.1 µM); IC90 EFA 14506 [4]: 11.4 µg/mL (≈ 22.4 µM); IC90 EFA 29212 [5]: 12.8 µg/mL (≈ 25.1 µM); IC90 LMO 49594 [6]: 12.8 µg/mL (≈ 25.1 µM); IC90 PAE 27853 [7]: 12.8 µg/mL (≈ 25.1 µM); IC90 STA 25923 [8]: 5.1 µg/mL (≈ 10 µM); IC90 STA 29213 [1]: 12.8 µg/mL (≈ 25.1 µM); IC90 SPN 6305 [2]: 12.8 µg/mL (≈ 25.1 µM); IC90 SPY 8668 [9]: 12.8 µg/mL (≈ 25.1 µM); IC90 STA RMETHIC [10]: 12.8 µg/mL (≈ 25.1 µM)
CN(C)CC(c1cccc2ccccc12)C(O)C(Cc1ccccc1)c1ccc2cc(Br)ccc2n1 (single isomer, unassigned) [Compound 2]	143 °C	12.1 µg/mL (≈ 22.4 µM)	13.6 µg/mL (≈ 25.2 µM)	13.6 µg/mL (≈ 25.2 µM)	10.8 µg/mL (≈ 20 µM)	10.8 µg/mL (≈ 20 µM)	10.8 µg/mL (≈ 20 µM)	10.8 µg/mL (≈ 20 µM)	13.6 µg/mL (≈ 25.2 µM)	13.6 µg/mL (≈ 25.2 µM)	IC90 [4]: 12.1 µg/mL (≈ 22.4 µM); IC90 [11]: 10.8 µg/mL (≈ 20 µM)
CN(C)CC(c1cccc(F)c1)C(O)C(Cc1ccccc1)c1ccc2cc(Br)ccc2n1 (single isomer, unassigned) [Compound 1]	136 °C	12.8 µg/mL (≈ 25.2 µM)	12.8 µg/mL (≈ 25.2 µM)		12.8 µg/mL (≈ 25.2 µM)	10.1 µg/mL (≈ 19.9 µM)	12.8 µg/mL (≈ 25.2 µM)	10.1 µg/mL (≈ 19.9 µM)	12.8 µg/mL (≈ 25.2 µM)	12.8 µg/mL (≈ 25.2 µM)	IC90 [11]: 10.1 µg/mL (≈ 19.9 µM)
CCc1cc2ccc(C(c3ccccc3)C(O)(CCN(C)C)c3cc(F)cc(F)c3)cc2nc1Cl (single isomer, unassigned) [Compound 9]											IC90 BSU 43639 [3]: 12.4 µg/mL (≈ 25 µM); IC90 [4]: 11.1 µg/mL (≈ 22.4 µM); IC90 EFA 29212 [5]: 12.4 µg/mL (≈ 25 µM); IC90 LMO 49594 [6]: 12.4 µg/mL (≈ 25 µM); IC90 PAE 27853 [7]: 9.9 µg/mL (≈ 20 µM); IC90 STA 25923 [8]: 12.4 µg/mL (≈ 25 µM); IC90 STA 29213 [1]: 11.1 µg/mL (≈ 22.4 µM); IC90 [11]: 9.9 µg/mL (≈ 20 µM); IC90 SPN 6305 [2]: 12.4 µg/mL (≈ 25 µM); IC90 SPY 8668 [9]: 9.9 µg/mL (≈ 20 µM); IC90 STA RMETHIC [10]: 12.4 µg/mL (≈ 25 µM)

— US8802671B2, “Quinoline derivatives as antibacterial agents” (Janssen Pharmaceutica NV, priority 2005, dated 2014)
